The results in this text go back to ChEMBL document CHEMBL5604062, “ASAP - ZIKV NS2B-NS3 protease fluorescence dose response” (2024).

Usually IC50 stands for the concentration that gives 50% inhibition.

Nonstructural protein 3, sequence (A0A024AXB9 whole entry): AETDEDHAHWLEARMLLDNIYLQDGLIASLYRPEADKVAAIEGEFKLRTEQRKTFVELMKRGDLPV

This assay concerns the target Nonstructural protein 3 (Zika virus, UniProt A0A024AXB9). Put plainly: Functional biochemical assay to identify treatments for viral infectious disease that targets Zika NS2B-NS3 protease. Utilizing a direct enzyme activity measurement method, reading the fluorescence intensity is used to characterize the relative potency of inhibitors as IC50. Details: species or system PRVABC59.
With `NCc1cccc(NC(=O)[C@@H](NC(=O)OCc2ccccc2)C2CCN(S(=O)(=O)C3CCCC3)CC2)c1`, the IC50 was over 99.5 µM.
In the case of `NCc1cccc(NC(=O)c2cc(NC(=O)OCc3ccccc3)ccc2C(F)(F)F)c1` it was over 99.5 µM; in that of `NCc1cccc(NC(=O)c2cc(Cl)cc(-n3cccc3)c2)c1`, 2.7 µM.
Turning to `NCc1cccc(NC(=O)[C@@H](NC(=O)OCc2ccccc2)C2CCN(C(=O)C3CC3)CC2)c1`, the IC50 is over 99.5 µM.
For the compound `NCc1cccc(NC(=O)[C@H](NC(=O)OCc2ccccc2)C2CCN(C(=O)[C@H]3C[C@H](O)C3)CC2)c1`, the IC50 is over 99.5 µM.
`Cn1ccc(COc2ccc([C@@H](NC(=O)OCc3ccccc3)C(=O)Nc3cccc(CN)c3)cc2)n1` registered an IC50 of over 99.5 µM.
`NCc1cccc(NC(=O)[C@@H](NC(=O)OCc2ccccc2)C2CCN(Cc3cn[nH]c3)CC2)c1`: the IC50 was over 99.5 µM.
Under `Cn1nc2c(c1NC(=O)c1cc(Cl)cc(NC(=O)OCc3ccccc3)c1)CCNC2` stands over 99.5 µM; under `N#CC1(S(=O)(=O)N2CCC([C@H](NC(=O)OCc3ccccc3)C(=O)Nc3cccc(CN)c3)CC2)CCC1`, 97.6 µM.
Under `C[C@@H]1CNC[C@H]1c1ccc(NC(=O)c2ccc3c(c2)SCCN3)cc1` stands over 99.5 µM; under `NCc1cccc(NC(=O)c2ccc(F)c(NC(=O)OCc3ccccc3)c2F)c1`, over 99.5 µM; under `Cc1nnsc1CN1CCC([C@@H](NC(=O)OCc2ccccc2)C(=O)Nc2cccc(CN)c2)CC1`, over 99.5 µM.
As to `N#Cc1ccc(N2CCN(Cc3c[nH]c4ccccc34)CC2)cc1`, it took 86.2 µM to reach half-maximal inhibition (IC50).
In the case of `NCc1cccc(NC(=O)[C@@H](NC(=O)OCc2ccccc2)C2CCN(Cc3cccnc3)CC2)c1`, the IC50 is over 99.5 µM.
In the case of `N#Cc1cc(Cl)cc(C(=O)Nc2cccc(CN)c2)c1` it was 11 µM; in that of `c1ccc(-c2[nH]c3ccccc3c2CN2CCC(c3cscn3)CC2)cc1`, 34.4 µM; in that of `NCc1cccc(NC(=O)[C@@H](NC(=O)OCc2ccccc2)C2CCN(C(=O)c3cscn3)CC2)c1`, over 99.5 µM.
As to `NCc1cccc(NC(=O)[C@@H](NC(=O)OCc2ccccc2)c2ccc(OCC3CCOCC3)cc2)c1`, the IC50 was 95.5 µM.
Under `NCC12CC(NC(=O)c3cc(Cl)cc(NC(=O)OCc4ccccc4)c3)(CCO1)C2` stands over 99.5 µM; under `COc1c(Cl)cc(Cl)cc1C(=O)Nc1cccc(CN)c1`, 13.9 µM; under `O=C(Cn1ccnc(N2CC[C@H](CO)C2)c1=O)NCc1ccsc1`, over 99.5 µM.
The compound `Cn1nnc(S(=O)(=O)N2CCC([C@H](NC(=O)OCc3ccccc3)C(=O)Nc3cccc(CN)c3)CC2)n1` gave an IC50 of over 99.5 µM.
Consider `NS(=O)(=O)c1ccccc1N1CCN(Cc2c[nH]c3ccccc23)CC1`, for which the IC50 is over 99.5 µM.
`NCc1cccc(NC(=O)[C@@H](NC(=O)OCc2ccccc2)c2ccc(OCc3ccccn3)cc2)c1` registered an IC50 of over 99.5 µM.
For `C=CC[C@]1(NC(=O)c2cc(Cl)cc(NC(=O)OCc3ccccc3)c2)CCNC1`, the concentration for half-maximal inhibition (IC50) is over 99.5 µM.
In the case of `NCc1cccc(NS(=O)(=O)c2cc(Cl)cc(NC(=O)OCc3ccccc3)c2)c1`, the 50% inhibitory concentration (IC50) is over 99.5 µM.
Compound `CCOC(=O)Nc1cc(Cl)cc(C(=O)Nc2cccc(CN)c2)c1` came in with a 50% inhibitory concentration (IC50) of 3.2 µM.
Turning to `O=C(Nc1cc(Cl)cc(C(=O)NC[C@@]23CN[C@H](CCO2)C3)c1)OCc1ccccc1`, the IC50 was over 99.5 µM.
On to `NCCCc1ccc(F)c(NC(=O)c2cc(Cl)cc(NC(=O)OCc3ccccc3)c2)c1`, for which it took 6.27 µM to reach half-maximal inhibition (IC50).
As to `CC(C)OC(=O)Nc1cc(Cl)cc(C(=O)Nc2cccc(CN)c2)c1`, the IC50 came to 2.46 µM.
`NC[C@@H](NC(=O)c1cc(Cl)cc(NC(=O)OCc2ccccc2)c1)c1ccccc1` came in with an IC50 of over 99.5 µM.
Compound `O=C(Nc1cc(Cl)cc(C(=O)NC[C@@H]2CNCCC2(F)F)c1)OCc1ccccc1` gave an IC50 of over 99.5 µM.
In turn, `NC[C@H]1C[C@@H](CNC(=O)c2cc(Cl)cc(NC(=O)OCc3ccccc3)c2)CCO1` showed an IC50 of over 99.5 µM.
Under `c1ccc(N2CCN(Cc3c[nH]c4ccccc34)CC2)nc1` stands over 99.5 µM; under `c1ccc(COc2ccc3c(CN4CCC(c5cscn5)CC4)c[nH]c3c2)cc1`, over 99.5 µM; under `NCc1cccc(NC(=O)[C@@H](NC(=O)OCc2ccccc2)C2CCN(S(=O)(=O)Cc3cscn3)CC2)c1`, over 99.5 µM.
In turn, `CCc1[nH]c2ccccc2c1CN1CCC(c2cscn2)CC1` came in with a 50% inhibitory concentration (IC50) of 21 µM.
In turn, `O=C(Nc1cc(Cl)cc(C(=O)NC[C@H]2CC3(CNC3)CO2)c1)OCc1ccccc1` gave an IC50 of 46.1 µM.
In turn, `C[C@@]1(CNC(=O)c2cc(Cl)cc(NC(=O)OCc3ccccc3)c2)CNCCOC1` yielded a 50% inhibitory concentration (IC50) of over 99.5 µM.
In the case of `NCc1ccc(CNC(=O)c2cc(Cl)cc(NC(=O)OCc3ccccc3)c2)c(F)c1` it was 32.9 µM; in that of `Cc1nnc(S(=O)(=O)N2CCC([C@H](NC(=O)OCc3ccccc3)C(=O)Nc3cccc(CN)c3)CC2)s1`, over 99.5 µM; in that of `NCc1cccc(NC(=O)[C@@H](NC(=O)OCc2ccccc2)c2ccc(OC[C@H]3CCS(=O)(=O)C3)cc2)c1`, over 99.5 µM.
In turn, `O=C(Cn1ccnc(N2CC[C@H](CO)C2)c1=O)NCc1cccs1` yielded an IC50 of over 99.5 µM.
Take `NCc1cccc(NC(=O)c2cc(Cl)cc(Cl)c2O)c1`: the IC50 was over 99.5 µM.
Under `O=C(Nc1cc(Cl)cc(C(=O)NC[C@@]23CC[C@H](CNC2)C3)c1)OCc1ccccc1` stands over 99.5 µM; under `NC[C@H]1C[C@](F)(CNC(=O)c2cc(Cl)cc(NC(=O)OCc3ccccc3)c2)C1`, 67 µM; under `CN1CCC(COc2cccc([C@H](NC(=O)OCc3ccccc3)C(=O)Nc3cccc(CN)c3)c2)CC1`, 87.6 µM.
On to `NCc1cccc(NC(=O)[C@@H](NC(=O)OCc2ccccc2)C2CCN(S(=O)(=O)[C@H]3CCOC3)CC2)c1`, for which the IC50 is over 99.5 µM.
For the compound `CC(=O)Nc1cc(Cl)cc(C(=O)Nc2cccc(CN)c2)c1`, the IC50 was found to be 3.52 µM.
`NC[C@]12CC[C@](NC(=O)c3cc(Cl)cc(NC(=O)OCc4ccccc4)c3)(CO1)C2` came in with a half-maximal inhibitory concentration (IC50) of 49.4 µM.
As for `Cc1cccc(CNc2ccc(Cl)cc2C(=O)Nc2cccc(CN)c2)n1`, the IC50 is over 99.5 µM.
With `NCc1cccc(NC(=O)[C@@H](NC(=O)OCc2ccccc2)C2CCN(Cc3ccncc3)CC2)c1`, the 50% inhibitory concentration (IC50) was over 99.5 µM.
Regarding `CN(C)Cc1csc(NC(=O)c2cc(Cl)cc(NC(=O)OCc3ccccc3)c2)n1`, the 50% inhibitory concentration (IC50) was over 99.5 µM.
As for `NCc1cccc(NC(=O)[C@@H](NC(=O)OCc2ccccc2)C2CCN(S(=O)(=O)Cc3ncon3)CC2)c1`, the 50% inhibitory concentration (IC50) was over 99.5 µM.
Compound `NCc1cccc(NC(=O)c2nc(=O)cc(NC(=O)OCc3ccccc3)[nH]2)c1` displayed an IC50 of over 99.5 µM.
`CNCc1cccc(NC(=O)c2cc(Cl)cc(NC(=O)OCc3ccccc3)c2)c1` gave an IC50 of 19.6 µM.
As for `NCc1cccc(NC(=O)[C@@H](NC(=O)OCc2ccccc2)C2CCN(C3CCOCC3)CC2)c1`, the IC50 was over 99.5 µM.
As to `Clc1ccc2c(CN3CCC(c4c[nH]c5ncccc45)CC3)c[nH]c2c1`, it took 24.9 µM to reach half-maximal inhibition (IC50).
Take `O=C(Nc1cc(Cl)cc(C(=O)NC[C@H]2CCNC3(CC3)C2)c1)OCc1ccccc1`: the IC50 was over 99.5 µM.
Under `Cc1ncc(COc2ccc([C@@H](NC(=O)OCc3ccccc3)C(=O)Nc3cccc(CN)c3)cc2)o1` stands over 99.5 µM; under `O=C(Nc1cc(Cl)cc(C(=O)N[C@@]23CCCCC[C@@H]2NCC3)c1)OCc1ccccc1`, 76.1 µM; under `N[C@H]1CC[C@H](NC(=O)c2cc(Cl)cc(NC(=O)OCc3ccccc3)c2)C1`, 69.7 µM.
In the case of `COCC(=O)N1CCC([C@@H](NC(=O)OCc2ccccc2)C(=O)Nc2cccc(CN)c2)CC1` it was over 99.5 µM.
In the case of `Cc1nccn1-c1ccc(Cl)cc1C(=O)Nc1cccc(CN)c1`, the IC50 is over 99.5 µM.
Compound `CN(C)Cc1cc(NC(=O)[C@H](NC(=O)OCc2ccccc2)c2ccc(OCc3ccccc3)cc2)sn1` gave an IC50 of over 99.5 µM.
`NCc1ccccc1Oc1ccc(S(=O)(=O)Nc2ccc(Cl)cc2C(=O)NCC(F)(F)F)cc1` showed an IC50 of over 99.5 µM.
Regarding `CC(C)S(=O)(=O)N1CCC([C@@H](NC(=O)OCc2ccccc2)C(=O)Nc2cccc(CN)c2)CC1`, the IC50 was over 99.5 µM.
The compound `Cn1ccnc1C(=O)N1CCC([C@H](NC(=O)OCc2ccccc2)C(=O)Nc2cccc(CN)c2)CC1` had an IC50 of over 99.5 µM.
`CS(=O)(=O)N1CCC([C@@H](NC(=O)OCc2ccccc2)C(=O)Nc2cccc(CN)c2)CC1` had a 50% inhibitory concentration (IC50) of over 99.5 µM.
On to `O=C(Nc1cc(Cl)cc(C(=O)Nc2ccc3c(c2)CNCCO3)c1)OCc1ccccc1`, for which inhibition was half-maximal at 7.69 µM (IC50). This lies in the single-digit micromolar range.
With `O=C(Nc1cc(Cl)cc(C(=O)NC[C@H]2CNC3(CC3)CO2)c1)OCc1ccccc1`, the IC50 is over 99.5 µM.
As to `O=C(Nc1cc(Cl)cc(C(=O)NC2([C@H]3CCNC3)CC2)c1)OCc1ccccc1`, the IC50 was over 99.5 µM.
In turn, `O=C(Nc1cc(Cl)cc(C(=O)Nc2nccn2C2CNC2)c1)OCc1ccccc1` displayed a half-inhibitory concentration (IC50) of over 99.5 µM.
`N[C@@H]1CC[C@H](CCNC(=O)c2cc(Cl)cc(NC(=O)OCc3ccccc3)c2)C1` came in with an IC50 of 61 µM.
Regarding `NCc1cccc(NC(=O)[C@@H](NC(=O)OCc2ccccc2)c2ccc(OCCN3CCCCC3)cc2)c1`, the half-inhibitory concentration (IC50) was over 99.5 µM.
`CCc1ccc([C@@H](CC(=O)Nc2cccc(CN)c2)NC(=O)OCc2ccccc2)cc1Br` came in with an IC50 of 12.1 µM. This counts as double-digit micromolar.
In the case of `NCc1cccc(NC(=O)[C@@H](NC(=O)OCc2ccccc2)c2ccc(OCc3cnccn3)cc2)c1` it was over 99.5 µM.
Compound `NCc1cc(F)cc(NC(=O)c2cc(Cl)cc(NC(=O)OCc3ccccc3)c2)c1` yielded a half-maximal inhibitory concentration (IC50) of 5.86 µM.
Turning to `Cn1nc2c(c1NC(=O)c1cc(Cl)cc(NC(=O)OCc3ccccc3)c1)CNCC2`, the half-maximal inhibitory concentration (IC50) was 21.9 µM.
In the case of `NC[C@]1(F)C[C@@H](NC(=O)c2cc(Cl)cc(NC(=O)OCc3ccccc3)c2)C1` it was 68.6 µM.
In the case of `NCc1cccc(NC(=O)[C@H](NC(=O)OCc2ccccc2)c2cccc(OCCn3cccn3)c2)c1` it was over 99.5 µM.
Turning to `NS(=O)(=O)c1cccc(N2CCN(Cc3c[nH]c4ccccc34)CC2)c1`, the IC50 is over 99.5 µM.
As for `Cc1csc(N2CCN(Cc3c[nH]c4ccccc34)CC2)n1`, the IC50 is over 99.5 µM.
In the case of `C[C@@H](N)c1cccc(NC(=O)c2cc(Cl)cc(NC(=O)OCc3ccccc3)c2)c1` it was 22.7 µM.
